Here are results for 13 compounds from patent publication US7662825B2, “N-pyrazinyl-phenylsulphonamides and their use in the treatment of chemokine mediated diseases” (AstraZeneca AB, priority 2002, dated 2010).

Molecules are shown by their SMILES.

The first data set concerns the target T1, human recombinant CCR4 receptor (Homo sapiens, UniProt P51679).
T1 construct: host or cells: CHO-K1
T1 sequence (P51679 1-360): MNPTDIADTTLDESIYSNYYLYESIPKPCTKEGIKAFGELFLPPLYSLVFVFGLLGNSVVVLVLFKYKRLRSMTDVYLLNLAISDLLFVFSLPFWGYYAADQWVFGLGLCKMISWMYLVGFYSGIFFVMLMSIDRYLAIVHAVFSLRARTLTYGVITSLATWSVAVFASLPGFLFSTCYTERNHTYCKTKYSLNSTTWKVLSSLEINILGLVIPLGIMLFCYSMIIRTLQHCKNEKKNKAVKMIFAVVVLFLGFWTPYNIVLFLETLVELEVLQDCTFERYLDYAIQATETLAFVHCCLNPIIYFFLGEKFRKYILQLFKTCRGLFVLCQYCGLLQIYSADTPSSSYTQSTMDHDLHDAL
Description: FMAT whole cell binding assay (FB-MDC binding to cells). To be noted: CHO-K1 cells stably expressing human recombinant CCR4; inhibition of binding of fluorescent FB-MDC, two hours at room temperature. The protocol:
FMAT Whole Cell Binding Assay
CHO—K1 cells stably expressing the human recombinant CCR4 receptor (Euroscreen; Brussels, Belgium) were cultured in NUT.MIX.F—12(HAM) medium with glutamax-1, containing 10% (v/v) foetal bovine serum and 400 μg ml^−1 geneticin.
Cells were harvested at approximately 70% confluence by treatment with a cell dissociation buffer, and seeded at 5×10^3 cells/100 μl culture medium into wells of a black Costar clear-bottomed 96-well microtitre plates. Plates were incubated overnight at 37° C. in 5% CO2 and used the following day.
Before use, the cell plates were washed twice with 100 μl Hanks balanced salt solution (HBSS). To each well was then added 65 μl of HBSS, 10 μL of 10% DMSO in HBSS±test compound and then 25 μL of 2.8 nM FB-MDC (Applied Biosystems). This fluorescent probe was prepared from a 10 μM stock in 0.08% (v/v) TFA/16% (v/v) acetonitrile, diluted into HBSS.
After two hours incubation in the dark at room temperature, the plates were analysed in an FMAT8100 reader (Applied Biosystems) to measure fluorescence that was associated with binding of FB-MDC to the cells.
As usually defined, the IC50 is the point on the concentration scale where inhibition reaches its midpoint. For `COc1nc(CN2CCOCC2)cnc1NS(=O)(=O)c1cccc(Cl)c1Cl` [Example 186, 2,3-Dichloro-N-[3-methoxy-5-(4-morpholinylmethyl)-2-pyrazinyl]benzenesulphonamide], the IC50 was 631 nM.

`COC(=O)c1nc(OC)c(NS(=O)(=O)c2cccc(Cl)c2Cl)nc1C` [Example 119, 5-(2,3-Dichlorobenzenesulphonylamino)-6-methoxy-3-methylpyrazine-2-carboxylic aicd, methyl ester]: the IC50 was 63.1 nM.

Test system in a further data set: not given
Assay: not given
Conditions: not given
By melting point is commonly meant the temperature of the solid-liquid transition. `COC(=O)c1nc(OC)c(NS(=O)(=O)c2cccc(Cl)c2Cl)nc1C` [Example 119, 5-(2,3-Dichlorobenzenesulphonylamino)-6-methoxy-3-methylpyrazine-2-carboxylic aicd, methyl ester] yielded a melting point of 149 to 150 °C.

As for `C=CCOc1cnc(NS(=O)(=O)c2cccc(Cl)c2Cl)c(OC)n1` [Example 139, N-(5-Allyloxy-3-methoxy-2-pyrazinyl)-2,3-dichlorobenzenesulphonamide], the melting point is 120 to 121 °C.

Take `COc1ncc(CO)nc1NS(=O)(=O)c1cccc(Cl)c1Cl` [Example 202, 2,3-Dichloro-N-[6-(hydroxymethyl)-3-methoxy-2-pyrazinyl]benzenesulphonamide]: the melting point lay in the range of 153 to 155 °C.

`COc1nc(S(C)(=O)=O)cnc1NS(=O)(=O)c1cccc(Cl)c1Cl` [Example 203, 2,3-Dichloro-N-(5-methanesulphonyl-3-methoxy-2-pyrazinyl)benzenesulphonamide] had a melting point of 237 to 238 °C.

`O=S(=O)(Nc1ncc(Br)nc1OCc1cnccn1)c1cccc(Cl)c1Cl` [Example 31, N-[5-Bromo-3-(2-pyrazinylmethoxy)-2-pyrazinyl]-2,3-dichlorobenzenesulphonamide] displayed a melting point of 207 to 209 °C.

`NCc1ccc(COc2nc(Cl)cnc2NS(=O)(=O)c2cccc(Cl)c2Cl)o1` [Example 196, N-(3-(5-Aminomethyl-2-furanylmethoxy)-5-chloro-2-pyrazinyl)-2,3-dichloro-benzenesulphonamide] displayed a melting point of 201 to 202 °C.

Compound `COc1nc(Cl)c(Cl)nc1NS(=O)(=O)c1ccc(Cl)c(Cl)c1` [Example 64, 3,4-Dichloro-N-(5,6-dichloro-3-methoxy-2-pyrazinyl)benzenesulphonamide] registered a melting point of 189 to 191 °C.

The compound `Nc1nc(COc2nc(Cl)cnc2NS(=O)(=O)c2cccc(Cl)c2Cl)co1` [Example 212, N-[3-[(2-amino-4-oxazolyl)methoxy]-5-chloro-2-pyrazinyl]-2,3-dichlorobenzenesulphonamide] gave a melting point of 137 °C.

For `COc1nc(C)cnc1NS(=O)(=O)c1ccccc1F` [Example 13, N-(3-Methoxy-5-methyl-2-pyrazinyl)-2-fluorobenzenesulphonamide], the melting point was 150 to 152 °C.

Compound `Cc1cnc(NS(=O)(=O)c2cccc(Cl)c2Cl)c(OCc2ccncc2)n1` [Example 25, 2,3-Dichloro-N-[5-methyl-3-(4-pyridinylmethoxy)-2-pyrazinyl]benzenesulphonamide] gave a melting point of 183 to 184 °C.

In turn, `C#CCOc1nc(Cl)cnc1NS(=O)(=O)c1cccc(Cl)c1Cl` [Example 188, 2,3-Dichloro-N-[5-chloro-3-(2-propynyloxy)-2-pyrazinyl]benzenesulphonamide] gave a melting point of 138 to 139 °C.

For the compound `Cn1cc(COc2nc(Br)cnc2NS(=O)(=O)c2cccc(Cl)c2Cl)ccc1=O` [Example 32, N-[5-Bromo-3-(1-methyl-6-oxo-1,6-dihydro-3-pyridinylmethoxy)-2-pyrazinyl]-2,3-dichlorobenzenesulphonamide], the melting point lay within 169 to 170 °C.
